Measurements reported in patent publication US11965039B2, “Compstatin analogues and their medical uses” (priority 2018, dated 2024).
Positions of bridges follow the written chain, without caps; N, C: chain ends. Non-standard residues stand in square brackets, D forms with d. Residues, ends and D or L forms follow the SMILES beside them. Trp(1-Me) = Cn1cc(C[C@H](N)C(=O)O)c2ccccc21; NMeI = CC[C@H](C)[C@H](NC)C(=O)O; Sar = CNCC(=O)O

system: classical complement pathway; test: In vitro haemolysis assay (inhibition of classical complement pathway); format: cell-based, human; details: human serum, sensitized sheep red blood cells; Table 3, given as upper bounds; read-out: IC50, inhibition of hemolysis
Protocol: The in vitro effect of the compounds of the present invention was assessed by measuring their inhibitory effect of the classical complement pathway in a haemolysis assay. Briefly, compounds of the present invention and reference compounds were dissolved in DMSO and diluted in Tris/Casein Assay Buffer (10 mM Tris, 145 mM NaCl, 0.5 mM MgCl2, 0.15 mM CaCl2), and 0.1% W/V Casein, adjusted to pH 7.4) as 9-point serial dilutions in a 96 well plate. Sensitized sheep red blood cells (RBC) coated with rabbit anti-sheep erythrocyte antiserum (Complement Technology, Inc., TX, USA) were washed in Tris/Casein Assay Buffer. […] from each well of diluted compound was added to a 96-well plate containing 50 μL diluted human serum (Complement Technology, Inc., TX, USA) and incubated for 15 minutes at room temperature. The serum dilution factor was optimized for every serum batch to obtain 70-90% of maximal haemolysis using the protocol. Then 50 μL sensitized sheep red blood cells were added to all wells (10^7 per well). After 30 minutes of incubation at 37 QC with gentle agitation, the reaction was stopped by addition of 50 μL Tris STOP Buffer per well (10 mM EDTA, 10 mM Tris, 145 mM NaCl adjusted to pH 7.4). The RBCs were then removed by centrifugation and the resulting supernatant measured for hemolysis by absorbance at 405 nm. The response was normalized relative to a positive and negative control (vehicle) to calculate the IC50 from the concentration response curve using the 4-parameter logistic (4PL) nonlinear model for curve fitting.

SMILES | IC50 [nM]
CC[C@H](C)[C@H](NC(C)=O)C(=O)N[C@H]1CSSC[C@@H](C(=O)N[C@H](C(=O)N[C@@H](CCC(=O)O)C(N)=O)[C@@H](C)O)NC(=O)[C@H](CCCNC(=N)N)NC(=O)[C@H](Cc2c[nH]cn2)NC(=O)[C@H](CCC(=O)O)NC(=O)CNC(=O)[C@H](Cc2c[nH]c3ccccc23)NC(=O)[C@H](CC(=O)O)NC(=O)[C@H](CCC(N)=O)NC(=O)[C@H](Cc2c[nH]c3ccccc23)NC(=O)[C@H]([C@@H](C)CC)NC1=O [Compound 26] (Ac-ICIWQDWGEHRCTE-NH2; disulfide 2-12) | < 100
CC[C@H](C)[C@H](NC(=O)[C@H](C)NC(=O)[C@H](CO)NC(=O)CNC(=O)[C@H](CCC(=O)O)NC(C)=O)C(=O)N[C@H]1CSSC[C@@H](C(=O)N[C@H](C(N)=O)[C@@H](C)O)NC(=O)[C@H](CCCNC(=N)N)NC(=O)[C@H](Cc2c[nH]cn2)NC(=O)[C@H](CCC(=O)O)NC(=O)CNC(=O)[C@H](Cc2c[nH]c3ccccc23)NC(=O)[C@H](CC(=O)O)NC(=O)[C@H](CCC(N)=O)NC(=O)[C@H](Cc2c[nH]c3ccccc23)NC(=O)[C@H]([C@@H](C)CC)NC1=O [Compound 29] (Ac-EGSAICIWQDWGEHRCT-NH2; disulfide 6-16) | < 100
CC[C@H](C)[C@@H]1NC(=O)[C@@H](NC(=O)[C@@H](NC(=O)[C@H](CCC(=O)O)NC(C)=O)[C@@H](C)CC)CSSC[C@@H](C(=O)N[C@H](C(=O)N[C@@H](CCC(=O)O)C(=O)NCC(=O)N[C@@H](CCC(=O)O)C(N)=O)[C@@H](C)O)NC(=O)[C@H](CCCNC(=N)N)NC(=O)[C@H](Cc2c[nH]cn2)NC(=O)[C@H](CCC(=O)O)NC(=O)CNC(=O)[C@H](Cc2c[nH]c3ccccc23)NC(=O)[C@H](CC(=O)O)NC(=O)[C@H](CCC(N)=O)NC(=O)[C@H](Cc2c[nH]c3ccccc23)NC1=O [Compound 34] (Ac-EICIWQDWGEHRCTEGE-NH2; disulfide 3-13) | < 250
CC[C@H](C)[C@@H]1NC(=O)[C@@H](NC(=O)[C@@H](NC(=O)[C@H](CCC(=O)O)NC(=O)CNC(=O)[C@H](CCC(=O)O)NC(C)=O)[C@@H](C)CC)CSSC[C@@H](C(=O)N[C@@H](CCC(=O)O)C(=O)NCC(=O)N[C@@H](CCC(=O)O)C(N)=O)NC(=O)[C@H](CCCNC(=N)N)NC(=O)[C@H](Cc2c[nH]cn2)NC(=O)[C@H](CCC(=O)O)NC(=O)CNC(=O)[C@H](Cc2c[nH]c3ccccc23)NC(=O)[C@H](CC(=O)O)NC(=O)[C@H](CCC(N)=O)NC(=O)[C@H](Cc2c[nH]c3ccccc23)NC1=O [Compound 35] (Ac-EGEICIWQDWGEHRCEGE-NH2; disulfide 5-15) | < 500
CC[C@H](C)[C@@H]1NC(=O)[C@@H](NC(=O)[C@@H](NC(=O)[C@H](CCCCN)NC(=O)[C@H](CCC(=O)O)NC(=O)[C@H](CCCCN)NC(C)=O)[C@@H](C)CC)CSSC[C@@H](C(=O)N[C@H](C(=O)N[C@@H](CCC(=O)O)C(=O)N[C@@H](CCCCN)C(=O)N[C@@H](CCC(=O)O)C(N)=O)[C@@H](C)O)NC(=O)[C@H](CCCNC(=N)N)NC(=O)[C@H](Cc2c[nH]cn2)NC(=O)[C@H](CCC(=O)O)NC(=O)CNC(=O)[C@H](Cc2c[nH]c3ccccc23)NC(=O)[C@H](CC(=O)O)NC(=O)[C@H](CCC(N)=O)NC(=O)[C@H](Cc2c[nH]c3ccccc23)NC1=O [Compound 37] (Ac-KEKICIWQDWGEHRCTEKE-NH2; disulfide 5-15) | < 250
CC[C@H](C)[C@H](NC(=O)CNC(=O)[C@H](CCCCN)NC(=O)[C@H](CCC(=O)O)NC(C)=O)C(=O)N[C@H]1CSSC[C@@H](C(=O)N[C@H](C(=O)N[C@@H](CCC(=O)O)C(=O)N[C@@H](CCCCN)C(=O)N2CCC[C@H]2C(N)=O)[C@@H](C)O)NC(=O)[C@H](CCCNC(=N)N)NC(=O)[C@H](Cc2c[nH]cn2)NC(=O)[C@H](CCC(=O)O)NC(=O)CNC(=O)[C@H](Cc2c[nH]c3ccccc23)NC(=O)[C@H](CC(=O)O)NC(=O)[C@H](CCC(N)=O)NC(=O)[C@H](Cc2c[nH]c3ccccc23)NC(=O)[C@H]([C@@H](C)CC)NC1=O [Compound 38] (Ac-EKGICIWQDWGEHRCTEKP-NH2; disulfide 5-15) | < 250
CC[C@H](C)[C@H](NC(C)=O)C(=O)N[C@H]1CSSC[C@@H](C(=O)N[C@H](C(=O)N[C@@H](CCC(=O)O)C(=O)NCC(=O)N[C@@H](CCCCN)C(N)=O)[C@@H](C)O)NC(=O)[C@H](CCCNC(=N)N)NC(=O)[C@H](Cc2c[nH]cn2)NC(=O)[C@H](CCC(=O)O)NC(=O)CNC(=O)[C@H](Cc2c[nH]c3ccccc23)NC(=O)[C@H](CC(=O)O)NC(=O)[C@H](CCC(N)=O)NC(=O)[C@H](Cc2c[nH]c3ccccc23)NC(=O)[C@H]([C@@H](C)CC)NC1=O [Compound 39] (Ac-ICIWQDWGEHRCTEGK-NH2; disulfide 2-12) | < 100
CC[C@H](C)[C@H](NC(=O)[C@H](C)NC(=O)[C@H](CO)NC(C)=O)C(=O)N[C@H]1CSSC[C@@H](C(=O)N[C@H](C(=O)N[C@@H](CCC(=O)O)C(=O)NCC(N)=O)[C@@H](C)O)NC(=O)[C@H](CCCNC(=N)N)NC(=O)[C@H](Cc2c[nH]cn2)NC(=O)[C@H](CCC(=O)O)NC(=O)CNC(=O)[C@H](Cc2c[nH]c3ccccc23)NC(=O)[C@H](CC(=O)O)NC(=O)[C@H](CCC(N)=O)NC(=O)[C@H](Cc2c[nH]c3ccccc23)NC(=O)[C@H]([C@@H](C)CC)NC1=O [Compound 42] (Ac-SAICIWQDWGEHRCTEG-NH2; disulfide 4-14) | < 250
CC[C@H](C)[C@@H]1NC(=O)[C@@H](NC(=O)[C@H](Cc2ccccc2)NC(C)=O)CSSC[C@@H](C(=O)N[C@H](C(=O)NCC(=O)N[C@@H](C)C(=O)N[C@@H](CCC(=O)O)C(N)=O)[C@@H](C)O)NC(=O)[C@H](CCCNC(=N)N)NC(=O)[C@H](Cc2c[nH]cn2)NC(=O)[C@H](CCC(=O)O)NC(=O)CNC(=O)[C@H](Cc2c[nH]c3ccccc23)NC(=O)[C@H](CC(=O)O)NC(=O)[C@H](CCC(N)=O)NC(=O)[C@H](Cc2c[nH]c3ccccc23)NC1=O [Compound 43] (Ac-FCIWQDWGEHRCTGAE-NH2; disulfide 2-12) | < 100
CC[C@H](C)[C@H](NC(=O)[C@H](C)NC(=O)[C@H](CO)NC(=O)[C@H](CO)NC(=O)[C@H](CCC(=O)O)NC(C)=O)C(=O)N[C@H]1CSSC[C@@H](C(=O)N[C@H](C(N)=O)[C@@H](C)O)NC(=O)[C@H](CCCNC(=N)N)NC(=O)[C@H](Cc2c[nH]cn2)NC(=O)[C@H](C)NC(=O)CNC(=O)[C@H](Cc2c[nH]c3ccccc23)NC(=O)[C@H](CC(=O)O)NC(=O)[C@H](CCC(N)=O)NC(=O)[C@H](Cc2c[nH]c3ccccc23)NC(=O)[C@H]([C@@H](C)CC)NC1=O [Compound 46] (Ac-ESSAICIWQDWGAHRCT-NH2; disulfide 6-16) | < 100
CC[C@H](C)[C@H](NC(C)=O)C(=O)N[C@H]1CSSC[C@@H](C(=O)N[C@H](C(=O)NCC(=O)N[C@@H](C)C(=O)N[C@@H](CCC(=O)O)C(=O)N[C@@H](CO)C(N)=O)[C@@H](C)O)NC(=O)[C@H](CCCNC(=N)N)NC(=O)[C@H](Cc2c[nH]cn2)NC(=O)[C@H](C)NC(=O)CNC(=O)[C@H](Cc2c[nH]c3ccccc23)NC(=O)[C@H](CC(=O)O)NC(=O)[C@H](CCC(N)=O)NC(=O)[C@H](Cc2c[nH]c3ccccc23)NC(=O)[C@H]([C@@H](C)CC)NC1=O [Compound 47] (Ac-ICIWQDWGAHRCTGAES-NH2; disulfide 2-12) | < 100
CC[C@H](C)[C@H](NC(=O)[C@H](N)Cc1ccc(O)cc1)C(=O)N[C@H]1CSSC[C@@H](C(=O)N(C)[C@H](C(N)=O)[C@@H](C)CC)NC(=O)[C@H](CCCNC(=N)N)NC(=O)[C@H](Cc2c[nH]cn2)NC(=O)[C@H](C)NC(=O)CN(C)C(=O)[C@H](Cc2c[nH]c3ccccc23)NC(=O)[C@H](CC(=O)O)NC(=O)[C@H](CCC(N)=O)NC(=O)[C@H](Cc2cn(C)c3ccccc23)NC(=O)[C@H]([C@@H](C)CC)NC1=O [Compound 48, H-{d}YIC(1)I[1-Me-Trp]QDW[Sar]AHRC(1)[N-Me-Ile]-NH2] (H-[dY]ICI[Trp(1-Me)]QDW[Sar]AHRC[NMeI]-NH2; disulfide 3-13) | < 100
CC[C@H](C)[C@@H]1NC(=O)[C@@H](NC(=O)[C@H](Cc2ccccc2)NC(=O)[C@H](C)NC(=O)[C@H](CO)NC(=O)CNC(=O)[C@H](CCC(=O)O)NC(C)=O)CSSC[C@@H](C(=O)N[C@@H](CCC(=O)O)C(=O)NCC(=O)N[C@@H](CCC(=O)O)C(N)=O)NC(=O)[C@H](CCCNC(=N)N)NC(=O)[C@H](Cc2c[nH]cn2)NC(=O)[C@H](CCC(=O)O)NC(=O)CNC(=O)[C@H](Cc2c[nH]c3ccccc23)NC(=O)[C@H](CC(=O)O)NC(=O)[C@H](CCC(N)=O)NC(=O)[C@H](Cc2cn(C)c3ccccc23)NC1=O [Compound 58] (Ac-EGSAFCI[Trp(1-Me)]QDWGEHRCEGE-NH2; disulfide 6-16) | < 100
CC[C@H](C)[C@@H]1NC(=O)[C@@H](NC(=O)[C@H](Cc2ccc(O)cc2)NC(=O)[C@H](C)NC(=O)[C@H](CO)NC(=O)CNC(=O)[C@H](CCC(=O)O)NC(C)=O)CSSC[C@@H](C(=O)N[C@H](C(=O)N[C@@H](CCC(=O)O)C(N)=O)[C@@H](C)O)NC(=O)[C@H](CCCNC(=N)N)NC(=O)[C@H](Cc2c[nH]cn2)NC(=O)[C@H](CCC(=O)O)NC(=O)CNC(=O)[C@H](Cc2c[nH]c3ccccc23)NC(=O)[C@H](CC(=O)O)NC(=O)[C@H](CCC(N)=O)NC(=O)[C@H](Cc2cn(C)c3ccccc23)NC1=O [Compound 59] (Ac-EGSAYCI[Trp(1-Me)]QDWGEHRCTE-NH2; disulfide 6-16) | < 100
